Laboratory results as given in paper PMC8587015, “AGSE: A Novel Grape Seed Extract Enriched for PP2A Activating Flavonoids That Combats Oxidative Stress and Promotes Skin Health” (Molecules, 2021).
Several values for one entry are separate records, joined by “and”; a condition that tells them apart may be missing. Identical values can stand only once.

target: T1, PME-1 (Protein phosphatase methylesterase 1) (Homo sapiens, UniProt Q9Y570); assay: Demethylation of PP2A by PME-1, radioactive filter binding assay; type: biochemical; conditions: not given
T1 sequence (Q9Y570 1-386): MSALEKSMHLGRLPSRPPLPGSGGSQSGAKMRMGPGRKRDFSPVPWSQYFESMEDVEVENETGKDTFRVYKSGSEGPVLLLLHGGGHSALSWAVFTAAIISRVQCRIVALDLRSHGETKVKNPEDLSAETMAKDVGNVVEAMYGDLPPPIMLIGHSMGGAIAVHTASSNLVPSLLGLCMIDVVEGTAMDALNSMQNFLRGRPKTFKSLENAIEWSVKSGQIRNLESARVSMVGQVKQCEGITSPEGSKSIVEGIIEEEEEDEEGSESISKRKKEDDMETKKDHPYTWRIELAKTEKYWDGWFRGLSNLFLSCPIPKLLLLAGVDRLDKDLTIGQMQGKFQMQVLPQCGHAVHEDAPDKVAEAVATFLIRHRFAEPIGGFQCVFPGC
Procedure: [^3H]-labeled methylated PP2A AC dimer was prepared by incubating PP2A, LCMT1 and [^3H]-SAM (PerkinElmer; Waltham, MA, USA) in 50 mM MOPS-Na (pH 7.2), 5 mM MgCl2, and 1 mM DTT at room temperature for 1 h. Demethylation of PP2A by PME-1 (Protein phosphatase methylesterase 1) was measured using the radioactive filter binding assay format. 20 nM PME-1 was incubated for 15 min with extract or compound, then 20 nM of [^3H]-labeled methylated PP2A AC dimer was added. Reactions were run at room temperature for 30 min then applied to a 96-well filter plate (MilliporeSigma; Burlington, MA, USA.) containing 30% TCA where proteins were precipitated and separated from the excess of [^3H]-SAM by washing with 70% ethanol. [^3H]-incorporation was measured using TopCount NXT scintillation counter (PerkinElmer; Waltham, MA, USA). IC50 values were generated from dose–response curves using a four-parameter logistic curve fit in SigmaPlot (Systat Software, Inc., Palo Alto, CA, USA).

Row | SMILES | activity in preventing PP2A demethylation (in words)
1 | Oc1ccc(/C=C/c2cc(O)cc(O)c2)cc1 [Resveratrol] | does not function through this PP2A mechanism

same assay, conditions: GSE flavonoids / grape seed components; read-out: IC50, PP2A demethylation activity assay

Row | SMILES | IC50
2 | O=c1cc(-c2ccc(O)c(O)c2)oc2cc(O)cc(O)c12 [Luteolin] | 1.7 µM
3 | COc1cc(C(=O)O)cc(OC)c1O [Syringic acid] | > 15 µM
4 | O=c1c(O)c(-c2ccc(O)c(O)c2)oc2c(O)c(O)cc(O)c12 [Gossypetin] | 4.9 µM
5 | COc1cc(C(=O)O)ccc1O [Vanillic acid] | > 15 µM
6 | O=c1cc(-c2ccc(O)c(O)c2)oc2cc(O)c([C@@H]3O[C@H](CO)[C@@H](O)[C@H](O)[C@H]3O)c(O)c12 [Isoorientin] | > 25 µM
7 | COc1ccc(-c2coc3cc(O)cc(O)c3c2=O)cc1 [Biochanin a] | ~15 µM
8 | Oc1ccc(/C=C/c2cc(O)cc(O)c2)cc1 [Resveratrol] | > 100 µM
9 | Oc1cc(O)c2cc(O)c(-c3ccc(O)c(O)c3)[o+]c2c1 [Cyanidin chloride] | 4.3 µM
10 | C[C@@H]1O[C@@H](OC[C@H]2O[C@@H](Oc3cc(O)c4c(c3)O[C@H](c3ccc(O)cc3)CC4=O)[C@H](O)[C@@H](O)[C@@H]2O)[C@H](O)[C@H](O)[C@H]1O [Narirutin] | > 25 µM
11 | COc1ccc(-c2cc(=O)c3c(O)cc(O[C@@H]4O[C@H](CO[C@@H]5O[C@@H](C)[C@H](O)[C@@H](O)[C@H]5O)[C@@H](O)[C@H](O)[C@H]4O)cc3o2)cc1O [Diosmin] | ~25 µM
12 | Oc1cc(O)c2c(c1)O[C@H](c1ccc(O)c(O)c1)[C@H](O)[C@H]2c1c(O)cc(O)c2c1O[C@H](c1ccc(O)c(O)c1)[C@H](O)C2 [Procyanidin B2] | > 35 µM
13 | Oc1cc(O)c2c(c1)O[C@H](c1cc(O)c(O)c(O)c1)[C@H](O)C2 [Epigallocatechin] | > 15 µM
14 | O=c1cc(-c2ccc(O)c(O)c2)oc2cc(O[C@@H]3O[C@H](CO)[C@@H](O)[C@H](O)[C@H]3O)cc(O)c12 [Luteolin 7-O-B-glucoside] | > 25 µM
15 | O=c1c(O)c(-c2ccc(O)c(O)c2)oc2cc(O)c(O)c(O)c12 [Quercetagetin] | 0.5 µM and ~0.5 µM
16 | O=c1cc(-c2ccc(O)cc2)oc2cc(O)cc(O)c12 [Apigenin] | > 15 µM
17 | C[C@@H]1O[C@@H](OC[C@H]2O[C@@H](Oc3c(-c4ccc(O)c(O)c4)oc4cc(O)cc(O)c4c3=O)[C@H](O)[C@@H](O)[C@@H]2O)[C@H](O)[C@H](O)[C@H]1O [Rutin] | > 15 µM
18 | O=C1C[C@@H](c2ccc(O)c(O)c2)Oc2cc(O)cc(O)c21 [Eriodictyol] | > 25 µM
19 | Oc1cc(O)c2c(c1)O[C@H](c1ccc(O)c(O)c1)[C@@H](O)C2 [Catechin] | > 15 µM
20 | O=c1c(O)c(-c2cc(O)c(O)c(O)c2)oc2cc(O)cc(O)c12 [Myricetin] | 0.99 µM
21 | O=C(O)[C@H]1O[C@@H](Oc2cc3oc(-c4ccc(O)cc4)cc(=O)c3c(O)c2O)[C@H](O)[C@@H](O)[C@@H]1O [Scutellarin] | 4.9 µM
22 | CO/C=C(/C(=O)OC)c1ccccc1Oc1cc(Oc2ccccc2C#N)ncn1 [Azoxystrobin] | > 15 µM
23 | Oc1cc(O)c2cc(O)c(-c3cc(O)c(O)c(O)c3)[o+]c2c1 [Delphinidin] | 5.1 µM
24 | Oc1cc(O)cc(O)c1 [Phloroglucinol] | > 15 µM
25 | O=C(O)/C=C/c1ccc(O)c(O)c1 [Caffeic Acid] | > 15 µM
26 | COc1ccc(-c2cc(=O)c3c(O)cc(O)c(-c4cc(-c5cc(=O)c6c(O)cc(OC)cc6o5)ccc4OC)c3o2)cc1 [Sciadopitysin] | 1.1 µM
27 | COc1c(O)cc2oc3cc(O)c(CC=C(C)C)c(O)c3c(=O)c2c1CC=C(C)C [Mangostine] | 1.7 µM
28 | COc1ccc(-c2oc3cc(O)cc(O)c3c(=O)c2O)cc1 [Kaempferide] | 2 µM
29 | C=CCc1ccc(O)c(OC)c1 [Eugenol] | > 15 µM

Row | SMILES | IC50
30 | O=C(O[C@@H]1Cc2c(O)cc(O)cc2O[C@@H]1c1ccc(O)c(O)c1)c1cc(O)c(O)c(O)c1 [Epicatechin gallate] | 1.4 µM
31 | Oc1cccc(O)c1O [Pyrogallol] | ~15 µM
32 | COc1cc(OC)c2c(c1)OC(c1ccc(O)cc1)CC2=O (stereo not drawn) [5,7-dimethoxy-4′hydroxyflavanone] | > 25 µM
33 | O=c1c(-c2ccc(O)cc2)coc2cc(O[C@@H]3O[C@H](CO)[C@@H](O)[C@H](O)[C@H]3O)ccc12 [Diadzin] | > 15 µM
34 | CC(=O)Oc1cc(O)c2c(c1)OC(c1ccc(OC(C)=O)c(OC(C)=O)c1)C(OC(C)=O)C2=O (stereo not drawn) [2-(acetyloxy)-4-[3,7-bis(acetyloxy)-5-hydroxy-4-oxo-3,4-dihydro-2H-chromen-2-yl]phenyl acetate] | > 15 µM
35 | C=C[C@@]1(C)CC(=O)[C@]2(O)[C@@]3(C)[C@@H](O)CCC(C)(C)[C@@H]3[C@H](O)[C@H](OC(C)=O)[C@@]2(C)O1 [Forskolin] | > 25 µM
36 | O=c1cc(-c2ccccc2)oc2cc(O)c(O)c(O)c12 [Baicalein] | 3.4 µM
37 | CC(C)NC(=O)N1CC(=O)N(c2cc(Cl)cc(Cl)c2)C1=O [Iprodione] | > 15 µM
38 | O=C(O)c1cc(O)c(O)c(O)c1 [Gallic acid] | > 15 µM
39 | O=C(O[C@@H]1Cc2c(O)cc(O)cc2O[C@@H]1c1cc(O)c(O)c(O)c1)c1cc(O)c(O)c(O)c1 [Epigallocatechin gallate] | 2.6 µM
40 | COc1cc(-c2oc3cc(O)cc(O)c3c(=O)c2O)ccc1O [3,5,7,4′-Tetrahydroxy-3′-methoxyflavone] | > 15 µM
41 | CC(C)(C)C(O)(CCc1ccc(Cl)cc1)Cn1cncn1 (stereo not drawn) [Tebuconazole] | > 15 µM
42 | O=c1c(-c2ccc(O)cc2)coc2cc(O)ccc12 [Diadzein] | > 15 µM
43 | COc1cc(-c2oc3cc(O)cc(O)c3c(=O)c2O)cc(OC)c1OC [3,5,7-Trihydroxy-3′,4′,5′-Trimethoxyflavone] | > 15 µM
44 | COc1ccc(-c2coc3cc(O)ccc3c2=O)cc1 [Formonoetin] | > 15 µM
45 | COC(=O)Cc1cc(=O)oc2cc(OC)c(OC)cc12 [Methyl 6,7-dimethoxycoumarin-4-acetate] | > 25 µM
46 | Cc1ccc(O)c(O)c1 [4-methylcatechol] | > 15 µM
47 | COc1cc(O)c(C(=O)/C=C/c2ccc(O)cc2)c(OC)c1 [2′,4-dihydroxy-4′,6′-dimethoxychalcone] | > 25 µM
48 | CCCCC(C#N)(Cn1cncn1)c1ccc(Cl)cc1 (stereo not drawn) [Myclobutanil] | > 15 µM
49 | CC(C)(O)[C@@H]1[C@H]2OC(=O)[C@@H]1[C@]1(O)C[C@H]3O[C@]34C(=O)O[C@H]2[C@]14C [Picrotin] | > 25 µM
50 | O=c1cc(-c2ccc(O)c(O)c2)oc2c([C@@H]3O[C@H](CO)[C@@H](O)[C@H](O)[C@H]3O)c(O)cc(O)c12 [Orientin] | > 25 µM
51 | C[C@@H]1O[C@@H](O[C@H]2[C@H](Oc3cc(O)c4c(c3)O[C@H](c3ccc(O)cc3)CC4=O)O[C@H](CO)[C@@H](O)[C@@H]2O)[C@H](O)[C@H](O)[C@H]1O [Naringin] | > 25 µM
52 | O=c1c(O)c(-c2ccc(O)c(O)c2)oc2cc(O)cc(O)c12 [Quercetin] | 2.5 µM
53 | Oc1cc(O)c2c(c1)O[C@H](c1ccc(O)c(O)c1)[C@H](O)[C@H]2c1c(O)cc(O)c2c1O[C@H](c1ccc(O)c(O)c1)[C@@H](O)C2 [Procyanidin B1] | > 35 µM
54 | O=c1c(O[C@@H]2O[C@H](CO)[C@@H](O)[C@H](O)[C@H]2O)c(-c2ccc(O)c(O)c2)oc2cc(O)cc(O)c12 [Isoquercetin] | > 15 µM
55 | O=c1c(O)c(-c2ccc(O)cc2O)oc2cc(O)cc(O)c12 [Morin] | > 15 µM
56 | Oc1cc(O)c2c(c1)O[C@H](c1ccc(O)c(O)c1)[C@@H](O)[C@@H]2c1c(O)cc(O)c2c1O[C@H](c1ccc(O)c(O)c1)[C@@H](O)C2 [Procyanidin B3] | > 35 µM

same assay, conditions: IC50, PP2A demethylation activity assay, GSE flavonoids / grape seed components

Row | SMILES | IC50 [µM]
57 | COP(=S)(OC)SCN1C(=O)c2ccccc2C1=O [Phosmet] | > 15
